Laboratory results from PMC10313808, “Lipoxygenase inhibitory synthetic derivatives of methyl gallate regulate gene expressions of COX-2 and cytokines to reduce animal model arthritis” (Scientific Reports, 2023).
Like-named read-outs stand apart in the source and are kept apart here.

What was measured:
[1] = system: FCA-induced arthritis; experiment: FCA-induced arthritis: hind paw volume; type: in vivo, Sprague–Dawley (SD) rats; details: for Percentage of inhibition (paw oedema) / Paw volume (mL) (mean ± SEM) 9th day / Paw volume (mL) (mean ± SEM) 18th day / Paw volume (mL) (mean ± SEM) 28th day / Paw volume (mL) (mean ± SEM) Initial day: FCA rats; for amount required relative to diclofenac for the same level of effect: in vivo FCA arthritis studies
Method: Chronic inflammation induced by Freund's Complete Adjuvant contains a suspension of heat-killed Mycobacterium tuberculosis in the vehicle (Chondrex, Labex Corporation). 100 μL of FCA (10 mg/mL) was injected intradermally to the left-hand paw of SD rats[42]. […] Induction of inflammation became chronic by 9–12 days and then rats were divided into 7 groups having 6 rats in each group. Everything possible was done to minimize the suffering of experimental animals. Minimum number of rats only were drafted to generate reliable data. 42 rats were randomly allocated into seven groups (6 × 7).
Group I (n = 6) served as normal rats that received an equal volume of vehicle control. Group II (n = 6) was arthritic model control treated with vehicle only. Group III (n = 6) was arthritic control which received the diclofenac (10 mg.kg^–1). Groups IV (n = 6), V (n = 6), VI (n = 6) and VII (n = 6) were treated with a low and high dose of methyl gallate (20 mg.kg^–1, 40 mg.kg^–1) and MGSD 1 (1 mg.kg^–1, 10 mg.kg^–1). The drugs were orally administered through oral gavage daily in PBS vehicle for 28 days.
By a plethysmometer the rat hind paw volume was measured from the initial day to final day (28th day) with successive intervals of 9 days, before and after FCA injection. The inhibition was calculated by the formula given below. Percentageinhibition=1-Meanchangesinpawvolumeoftreatedrat/Meanchangesinpawvolumeofuntreatedrat×100.

[2] = target: T1, Lipoxidase from Glycine max (15- LOX) (Glycine max, UniProt P08170); experiment: In-vitro LOX enzyme inhibition assay (spectrophotometric, 234 nm); type: biochemical
T1 construct: purchased Sigma (Sigma-Aldrich, UK)
T1 sequence (P08170 1-839): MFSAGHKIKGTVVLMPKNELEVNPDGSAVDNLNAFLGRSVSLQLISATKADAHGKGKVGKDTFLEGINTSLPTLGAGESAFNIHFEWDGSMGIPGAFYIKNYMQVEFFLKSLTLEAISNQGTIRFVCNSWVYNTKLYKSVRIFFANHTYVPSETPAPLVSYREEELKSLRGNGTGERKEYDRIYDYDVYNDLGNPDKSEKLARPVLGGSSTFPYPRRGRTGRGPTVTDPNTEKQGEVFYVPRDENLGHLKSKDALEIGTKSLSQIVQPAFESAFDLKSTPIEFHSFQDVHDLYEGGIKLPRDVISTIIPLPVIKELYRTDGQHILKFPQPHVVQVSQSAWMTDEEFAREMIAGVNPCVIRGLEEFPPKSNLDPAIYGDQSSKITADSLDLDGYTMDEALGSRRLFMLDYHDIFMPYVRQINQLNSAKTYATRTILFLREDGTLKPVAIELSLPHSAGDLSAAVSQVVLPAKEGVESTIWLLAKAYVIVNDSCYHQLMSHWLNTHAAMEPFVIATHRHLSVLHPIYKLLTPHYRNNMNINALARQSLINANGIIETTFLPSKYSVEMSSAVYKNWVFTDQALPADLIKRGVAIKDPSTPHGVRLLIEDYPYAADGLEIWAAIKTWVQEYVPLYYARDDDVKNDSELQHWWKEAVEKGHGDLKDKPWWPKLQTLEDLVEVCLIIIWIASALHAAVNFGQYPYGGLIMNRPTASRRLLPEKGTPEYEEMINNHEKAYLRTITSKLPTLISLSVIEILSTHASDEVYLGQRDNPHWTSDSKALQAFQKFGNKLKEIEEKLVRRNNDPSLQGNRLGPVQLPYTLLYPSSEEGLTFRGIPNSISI
Method: The LOX inhibition assays were performed with MGSDs. The inhibitory activity was measured by a modified spectrophotometric method[16],[39]. The plant LOX pathway is in many respects equivalent to the ‘arachidonic acid cascades’ in animals. For this reason, the in vitro inhibition of LOX constitutes a good model for the screening of compounds with anti-inflammatory potential[40],[41]. LOX (Lipoxidase from Glycine max (15- LOX); EC 1.13.11.12) type I-B (Soybean), and linoleic acid were purchased from Sigma (Sigma-Aldrich, UK) and used without further purification. Enzyme solution of 1.03 µM was prepared in 0.2 mM borate buffer, pH 8.5. The substrate, linoleic acid solution of 0.3 mM was also prepared in the borate buffer at the same pH. […] The final concentration of MGSDs used for the analysis was 20 µM. The assay mixture was made of 50 µL of LOX, 50 µL of the test solution and 360 µL of the substrate. The final volume was made up to 2 mL with corresponding borate buffer quantity. The activity of LOX was measured on the formation of […], which was monitored at 234 nm on spectrophotometer, (HITACHI U 2900, Japan). The same procedure was repeated with triplicate for the confirmation of LOX inhibitory activity[16],[39].

[3] = target: T1, Lipoxidase from Glycine max (15- LOX); set-up: method as in PMID 29847215; details: read-out: IC50 (LOX enzyme); previous study ref 16; cited from earlier work
[4] = target: T1, Lipoxidase from Glycine max (15- LOX); experiment: Michaelis–Menten enzyme kinetics (Lineweaver-Burk); type: biochemical; details: for IC50: Cheng–Prusoff from Ki
Method: To identify the mode of inhibition, enzyme kinetics assay was performed with MGSDs. For the kinetic analysis different substrate concentrations of 18, 27, 36, 45, 54, 63 µM were prepared in 0.2 mM borate buffer (H 9)[16]. The assay mixture was made of 50 µL of LOX, 50 µL of the test solution and different concentrations of the substrate. The final volume was made upto 2 mL with corresponding borate buffer quantity. The activity of LOX was measured by the formation of […], which was monitored at 234 nm on spectrophotometer, (HITACHI U 2900, Japan). The reaction was measured at a time span of 300 s. The same experiment was repeated in the presence of 0.1, 0.08 and 0.06 μM concentration of MGSDs. The Line Weaver-Burk plot was constructed and Michaelis–Menten constant (Km) and Maximal Velocity (Vmax) were determined from the plot. From the Km and Vmax obtained, the inhibitor constant, Ki was calculated using the following equation derived from the Michaelis–Menten Equation: Km′=Km1+I0/Ki. The IC50was calculated using the Cheng–Prusoff equation, Ki=IC50/1+S/Km.

[5] = Solubility noted on sample preparation; type: physicochemical; details: water

Structure (SMILES): COC(=O)c1cc(O)c(O)c(O)c1 [Methyl gallate]
- Percentage of inhibition (paw oedema) ([1]; 20 mg.kg^−1 oral): 45%
- Paw volume (mL) (mean ± SEM) 9th day ([1]; 20 mg.kg^−1 oral): 1.32 ± 0.16 mL
- Paw volume (mL) (mean ± SEM) 18th day ([1]; 20 mg.kg^−1 oral): 1.24 ± 0.22 mL
- Paw volume (mL) (mean ± SEM) 28th day ([1]; 20 mg.kg^−1 oral): 1.18 ± 0.08 mL
- Paw volume (mL) (mean ± SEM) Initial day ([1]; 20 mg.kg^−1 oral): 0.56 ± 0.05 mL
- Percentage of inhibition (paw oedema) ([1]; 40 mg.kg^−1 oral): 37%
- Paw volume (mL) (mean ± SEM) 9th day ([1]; 40 mg.kg^−1 oral): 1.66 ± 0.18 mL
- Paw volume (mL) (mean ± SEM) 18th day ([1]; 40 mg.kg^−1 oral): 1.56 ± 0.24 mL
- Paw volume (mL) (mean ± SEM) 28th day ([1]; 40 mg.kg^−1 oral): 1.4 ± 0.09 mL
- Paw volume (mL) (mean ± SEM) Initial day ([1]; 40 mg.kg^−1 oral): 0.50 ± 0.05 mL
- Percentage of inhibition (paw oedema) ([1]; 40 mg.kg^−1 oral, listed as methyl gallate): 35–45%
- amount required relative to diclofenac for the same level of effect [1]: approximately five times of diclofenac
- inhibition at 200 µM ([2]; 0.2 mM compound): 61 ± 1.35%
- IC50 [3]: 30700 nM

Structure (SMILES): O=C(O)COc1cc(C(=O)O)cc(OCC(=O)O)c1OCC(=O)O [MGSD 1, 2,2′,2″-((5-carboxybenzene-1,2,3-triyl)tris(oxy)) tri acetic acid]
- Percentage of inhibition (paw oedema) ([1]; 1 mg.kg^−1 oral): 68%
- Paw volume (mL) (mean ± SEM) 9th day ([1]; 1 mg.kg^−1 oral): 0.97 ± 0.16 mL
- Paw volume (mL) (mean ± SEM) 18th day ([1]; 1 mg.kg^−1 oral): 0.68 ± 0.22 mL
- Paw volume (mL) (mean ± SEM) 28th day ([1]; 1 mg.kg^−1 oral): 0.59 ± 0.08 mL
- Paw volume (mL) (mean ± SEM) Initial day ([1]; 1 mg.kg^−1 oral): 0.50 ± 05 mL
- Percentage of inhibition (paw oedema) ([1]; 10 mg.kg^−1 oral): 70%
- Paw volume (mL) (mean ± SEM) 9th day ([1]; 10 mg.kg^−1 oral): 1.05 ± 0.16 mL
- Paw volume (mL) (mean ± SEM) 18th day ([1]; 10 mg.kg^−1 oral): 0.69 ± 0.22 mL
- Paw volume (mL) (mean ± SEM) 28th day ([1]; 10 mg.kg^−1 oral): 0.56 ± 0.08 mL
- Paw volume (mL) (mean ± SEM) Initial day ([1]; 10 mg.kg^−1 oral): 0.50 ± 0.05 mL
- amount required relative to diclofenac for the same level of effect [1]: approximately 1/12
- IC50 [4]: 102 nM
- IC50 ([4]; abstract): 100 nM
- Ki ([4]; linoleic acid substrate, competitive): 30 nM
- inhibition at 20 µM ([2]; 20 μM compound): 70 ± 3.45%
- solubility [5]: soluble in water
